In US20020164755A1, “Stable esterase, a process for the extraction thereof, and use thereof for cleaving acyclic monoterpenyl esters into their monoterpenols” (Council of Scientific and Industrial Research, priority 2000, published 2002):
Counter-ions that a name gives are not always drawn.

How the values were obtained:
[1] = system: esterase enzyme from palmarosa inflorescence; assay: Hydrolysis of geranyl acetate and other acyclic monoterpenyl esters by crude enzymic preparation from palmarosa inflorescence, GLC monitoring; type: biochemical, Cymbopogon martinii; conditions: for Hydrolysis by crude enzymic preparation (in words): crude enzymic preparation from palmarosa inflorescence; for % Geranyl acetate hydrolyzed: 10 μmol geranyl acetate, 1 mg protein, 30° C.
Description: The extraction medium for the esterase enzyme consisted of 0.1 M NaPi buffer (pH 6.5) containing 50 mM sodium metabisulphite, 10 mM β-mercaptoethanol, 10 mM ascrobic acid, 0.25 M sucrose and 1 mM EDTA-Na2. Tissue (palmarosa inflorescence) was homogenized in cold extraction medium (1 g tissue/3 ml) in the presence of 50% (w/w) insoluble PVPP (polyvinyl polypyrrolidone), which prevent enzymic browning of the homogenate. The slurry was squeezed through four layers of muslin cloth and centrifuged at 15,000×g for 60 min. Purified amberlite XAD-4 resin (50% of the tissue weight) was added to the supernatant and kept for 5 minutes at 4° C., to remove the endogenous terpenes of the tissue, which can produce a significant artefact in the determination of esterase enzyme activity. The slurry thus formed was filtered through muslin cloth and the clear supernatant obtained was used to determine the acyclic monoterpenyl esters cleaving esterase activity using geranyl acetate as a model substrate. This supernatant fraction was also used for ammonium sulphate fractionation of the esterase enzyme.
Preliminary enzyme assays were done to optimize the assay conditions, and linearity of the reaction rate with time as well as enzyme concentration. The terpenoid substrates were solubilized by its dispersion in the solution of Tween-20 (10 μg/μmol of the substrate). A gas liquid chromatographic (GLC) procedure has been developed to detect the acyclic monoterpenyl esters cleaving esterase activity. […] Saturating levels (10 μmol) of the substrate geranyl acetate and 0.5 to 1.0 mg of the enzyme protein were used in each assay.
(§1) The geranyl acetate cleaving esterase activity was determined by GLC monitoring of geraniol produced by the hydrolysis of geranyl acetate. The assay system consisted of 0.05M Tris-HCl buffer (pH 8.5), 5 mM MgCl2. 6H2O, 1 mM DTE, 2 mM geranyl acetate and enzyme extract (approximately 1 mg protein), in a total volume of 0.5 ml. The reaction mixture was incubated at 30° C. in a sealed capped tube for 3-4 hours. The geraniol produced and leftover geranyl acetate was then extracted with ether and subjected to GLC. The appearance of geraniol peak indicated the presence of geranyl acetate cleaving esterase activity (FIG. 1). A blank with the boiled enzyme was also run simultaneously.
(§2) The gas liquid chromatographic (GLC) analysis, for the determination of geraniol produced and leftover geranyl acetate, was performed using a Perkin Elmer (model 3920 B) apparatus equipped with FID (flame ionization detector) stainless steel column (2 m×3 mm i.d.) packed with 10% FFAP (free fatty acid phase) on chromosorb WAW (80-100 mesh). The operating conditions were: Column temperature isothermal at 165° C., injector and detector temperature 200° C. and 250° C. respectively. Nitrogen and hydrogen flow rate were a adjusted to 30 ml/min and 28 ml/min, respectively. The geraniol and geranyl acetate peaks were identified by coinjecting authentic standards and quantified using a Varian integrator (model 4400).
Time course experiment was performed to study the linearity of the hydrolysis of geranyl acetate during the incubation period using enzymic preparation from palmarosa inflorescence. A linear catalytic rate was found up to six hours of incubation at 30° C. Almost 75% of the geranyl acetate was hydrolyzed after 24 hours of incubation (Table 1, FIG. 2).

[2] = system: esterase enzyme from palmarosa inflorescence (60-80% ammonium sulphate precipitated fraction); assay: Hydrolysis of mixture of acyclic monoterpenyl esters by 60-80% ammonium sulphate precipitated protein fraction; type: biochemical, Cymbopogon martinii; conditions: 60-80% fraction, 1 mg protein; ester rich fraction from citronella java (geranyl acetate:geranyl formate:citronellyl acetate 60:18:21) as substrate
Description: as §1, §2
Monoterpenyl ester rich fraction from citronella java containing geranyl acetate, geranyl formate and citronellyl acetate in proportion (60:18:21) was used as substrate. […] Furthermore, crude esterase enzyme was also able to cleave these acyclic monoterpenyl esters but to a lesser extent.

| Hydrolysis by crude enzymic preparation (in words) [1] | % esters hydrolyzed per 3 hours [2] [%] | % Geranyl acetate hydrolyzed ([1]; incubation time 2 hour) [%] | % Geranyl acetate hydrolyzed ([1]; incubation time 4 hour) [%] | % Geranyl acetate hydrolyzed ([1]; incubation time 6 hour) [%] | % Geranyl acetate hydrolyzed ([1]; incubation time 8 hour) [%] | % Geranyl acetate hydrolyzed ([1]; incubation time 10 hour) [%] | % Geranyl acetate hydrolyzed ([1]; incubation time 12 hour) [%] | SMILES |
| --- | --- | --- | --- | --- | --- | --- | --- | --- |
| could also hydrolyze | 6.78 | – | – | – | – | – | – | CC(=O)OCCC(C)CCC=C(C)C (centres unmarked) [Citronellyl acetate, citronellyl acetate] |
| could also hydrolyze | 4.86 | – | – | – | – | – | – | CC(C)=CCC/C(C)=C/COC=O [Geranyl formate, geranyl formate] |
| – | 19.23 | 8.2 | 22.3 | 32 | 35.7 | 47.1 | 53.2 | CC(=O)OC/C=C(\C)CCC=C(C)C [geranyl acetate] |
